Measured values as given in ChEMBL document CHEMBL3885881, “DrugMatrix”.

Species on record: Rattus norvegicus
Test: DrugMatrix - Regimen: Daily Repeat
Assay type: toxicity, organism-based, Sprague-Dawley
Set-up: regimen Daily Repeat, gender Male, age 6-8 weeks
Conditions: in vivo, po, route oral GAVAGE, vehicle .5 % CMC; for URIC ACID / ALANINE AMINOTRANSFERASE / ALBUMIN / ALKALINE PHOSPHATASE / ASPARTATE AMINOTRANSFERASE / BLOOD UREA NITROGEN / CARBON DIOXIDE / CHLORIDE / CHOLESTEROL / CREATINE PHOSPHOKINASE / CREATININE / GLUCOSE / LACTATE DEHYDROGENASE / LIPASE / PHOSPHORUS / POTASSIUM / SODIUM / TOTAL BILIRUBIN / TOTAL PROTEIN: tissue Plasma; for ABSOLUTE BASOPHIL / ABSOLUTE EOSINOPHIL / ABSOLUTE LYMPHOCYTE / ABSOLUTE MONOCYTE / ABSOLUTE SEGMENTED NEUTROPHIL / BASOPHIL / EOSINOPHIL / ERYTHROCYTE COUNT / HEMATOCRIT / HEMOGLOBIN / LEUKOCYTE COUNT / LYMPHOCYTE / MEAN CORPUSCULAR HEMOGLOBIN / MEAN CORPUSCULAR HEMOGLOBIN CONCENTRATION / MONOCYTE / NEUTROPHIL / NUCLEATED RED BLOOD CELLS / PLATELET COUNT: tissue Blood
[1] = 10 mg/kg, 120 h, dose level Low, time 5 day
[2] = 269 mg/kg, 72 h, dose level High, time 3 day
[3] = 269 mg/kg, 120 h, dose level High, time 5 day

`O=C1C(CC[S+]([O-])c2ccccc2)C(=O)N(c2ccccc2)N1c1ccccc1` (stereo unspecified) [SULFINPYRAZONE] was tested, and the “URIC ACID” value (10 mg/kg, 72 h, dose level Low, time 3 day) was 2 mg/dL, the “ABSOLUTE BASOPHIL” value [1] was 0 CELLS/uL and the “ABSOLUTE EOSINOPHIL” value [1] was 0 CELLS/uL. For the same compound, the “ABSOLUTE LYMPHOCYTE” value [1] was 8238.33 CELLS/uL, the “ABSOLUTE MONOCYTE” value [1] was 0 CELLS/uL and the “ABSOLUTE SEGMENTED NEUTROPHIL” value [1] was 761.67 CELLS/uL. For the same compound, the BASOPHIL [1] was 0%, the EOSINOPHIL [1] was 0% and the “ERYTHROCYTE COUNT” value [1] was 5.27 x10E6/uL. The HEMATOCRIT [1] was 33.27%, the HEMOGLOBIN [1] was 13.03 G/DL and the “LEUKOCYTE COUNT” value [1] was 9 x10E3/uL. The LYMPHOCYTE [1] was 91.67%, the “MEAN CORPUSCULAR HEMOGLOBIN” value [1] was 24.77 pg and the “MEAN CORPUSCULAR HEMOGLOBIN CONCENTRATION” value [1] was 39.17 G/DL. For the same compound, the MONOCYTE [1] was 0%, the NEUTROPHIL [1] was 8.33% and the “NUCLEATED RED BLOOD CELLS” value [1] was 0 /100WBC. The “PLATELET COUNT” value [1] was 1182 x10E3/uL, the “ALANINE AMINOTRANSFERASE” value [1] was 51.33 u/L and the ALBUMIN [1] was 4.23 G/DL. The “ALKALINE PHOSPHATASE” value [1] was 307 u/L, the “ASPARTATE AMINOTRANSFERASE” value [1] was 86.67 u/L and the “BLOOD UREA NITROGEN” value [1] was 15.33 mg/dL. For the same compound, the “CARBON DIOXIDE” value [1] was 30 mmol/L, the CHLORIDE [1] was 102 MEQ/L and the CHOLESTEROL [1] was 63.67 mg/dL. For the same compound, the “CREATINE PHOSPHOKINASE” value [1] was 204 u/L, the CREATININE [1] was 0.19 mg/dL and the GLUCOSE [1] was 139.33 mg/dL. The “LACTATE DEHYDROGENASE” value [1] was 126 u/L, the LIPASE [1] was 9 u/L and the PHOSPHORUS [1] was 11.67 mg/dL. For the same compound, the POTASSIUM [1] was 6.44 MEQ/L, the SODIUM [1] was 148.53 MEQ/L and the “TOTAL BILIRUBIN” value [1] was 0.27 mg/dL. For the same compound, the “TOTAL PROTEIN” value [1] was 6.3 G/DL, the “URIC ACID” value [1] was 1 mg/dL and the “ABSOLUTE BASOPHIL” value [2] was 0 CELLS/uL. For the same compound, the “ABSOLUTE EOSINOPHIL” value [2] was 0 CELLS/uL, the “ABSOLUTE LYMPHOCYTE” value [2] was 15229.67 CELLS/uL and the “ABSOLUTE MONOCYTE” value [2] was 176.67 CELLS/uL. The “ABSOLUTE SEGMENTED NEUTROPHIL” value [2] was 1627 CELLS/uL, the BASOPHIL [2] was 0% and the EOSINOPHIL [2] was 0%. The “ERYTHROCYTE COUNT” value [2] was 4.48 x10E6/uL, the HEMATOCRIT [2] was 28.7% and the HEMOGLOBIN [2] was 11.63 G/DL. For the same compound, the “LEUKOCYTE COUNT” value [2] was 17.03 x10E3/uL, the LYMPHOCYTE [2] was 89.67% and the “MEAN CORPUSCULAR HEMOGLOBIN” value [2] was 26.03 pg. The “MEAN CORPUSCULAR HEMOGLOBIN CONCENTRATION” value [2] was 40.6 G/DL, the MONOCYTE [2] was 1% and the NEUTROPHIL [2] was 9.33%. The “NUCLEATED RED BLOOD CELLS” value [2] was 0 /100WBC, the “PLATELET COUNT” value [2] was 1194 x10E3/uL and the ALBUMIN [2] was 3.87 G/DL. The “ALKALINE PHOSPHATASE” value [2] was 319.33 u/L, the “ASPARTATE AMINOTRANSFERASE” value [2] was 92.67 u/L and the “BLOOD UREA NITROGEN” value [2] was 16 mg/dL. For the same compound, the “CARBON DIOXIDE” value [2] was 21.33 mmol/L, the CHLORIDE [2] was 105.67 MEQ/L and the CHOLESTEROL [2] was 78.67 mg/dL. For the same compound, the “CREATINE PHOSPHOKINASE” value [2] was 438 u/L, the CREATININE [2] was 0.18 mg/dL and the GLUCOSE [2] was 147 mg/dL. The “LACTATE DEHYDROGENASE” value [2] was 291 u/L, the LIPASE [2] was 10.33 u/L and the PHOSPHORUS [2] was 11.97 mg/dL. The POTASSIUM [2] was 6.1 MEQ/L, the SODIUM [2] was 145.03 MEQ/L and the “TOTAL BILIRUBIN” value [2] was 0.23 mg/dL. The “TOTAL PROTEIN” value [2] was 5.5 G/DL, the “URIC ACID” value [2] was 1.4 mg/dL and the “ABSOLUTE BASOPHIL” value [3] was 0 CELLS/uL. The “ABSOLUTE EOSINOPHIL” value [3] was 0 CELLS/uL, the “ABSOLUTE LYMPHOCYTE” value [3] was 20046 CELLS/uL and the “ABSOLUTE MONOCYTE” value [3] was 55 CELLS/uL. For the same compound, the “ABSOLUTE SEGMENTED NEUTROPHIL” value [3] was 2899 CELLS/uL, the BASOPHIL [3] was 0% and the EOSINOPHIL [3] was 0%. For the same compound, the “ERYTHROCYTE COUNT” value [3] was 5.28 x10E6/uL, the HEMATOCRIT [3] was 32.4% and the HEMOGLOBIN [3] was 13.17 G/DL. For the same compound, the “LEUKOCYTE COUNT” value [3] was 23 x10E3/uL, the LYMPHOCYTE [3] was 87.33% and the “MEAN CORPUSCULAR HEMOGLOBIN” value [3] was 24.9 pg. The “MEAN CORPUSCULAR HEMOGLOBIN CONCENTRATION” value [3] was 40.63 G/DL, the MONOCYTE [3] was 0.33% and the NEUTROPHIL [3] was 12.33%. For the same compound, the “NUCLEATED RED BLOOD CELLS” value [3] was 0 /100WBC, the “PLATELET COUNT” value [3] was 1314.67 x10E3/uL and the “ALANINE AMINOTRANSFERASE” value [3] was 59.33 u/L. The ALBUMIN [3] was 4.13 G/DL, the “ALKALINE PHOSPHATASE” value [3] was 291.33 u/L and the “ASPARTATE AMINOTRANSFERASE” value [3] was 70.33 u/L. The “BLOOD UREA NITROGEN” value [3] was 15 mg/dL, the “CARBON DIOXIDE” value [3] was 26.67 mmol/L and the CHLORIDE [3] was 102.33 MEQ/L. For the same compound, the CHOLESTEROL [3] was 77 mg/dL, the “CREATINE PHOSPHOKINASE” value [3] was 224.33 u/L and the CREATININE [3] was 0.25 mg/dL. The GLUCOSE [3] was 143.67 mg/dL, the “LACTATE DEHYDROGENASE” value [3] was 78.33 u/L and the LIPASE [3] was 9 u/L. For the same compound, the PHOSPHORUS [3] was 12.43 mg/dL, the POTASSIUM [3] was 6.73 MEQ/L and the SODIUM [3] was 147 MEQ/L. The “TOTAL BILIRUBIN” value [3] was 0.23 mg/dL, the “TOTAL PROTEIN” value [3] was 6 G/DL and the “URIC ACID” value [3] was 1.53 mg/dL.
